Experimental data published in patent publication US20060106014A1, “Methods for treating diabetes” (priority 2004, published 2006).
Read-outs that look alike come from different tables or passages of the source.

What was measured:
5-lipoxygenase [1] = target: T1, 5-lipoxygenase (Homo sapiens, UniProt P09917); conditions: background; cited from earlier work
T1 sequence (P09917 1-674): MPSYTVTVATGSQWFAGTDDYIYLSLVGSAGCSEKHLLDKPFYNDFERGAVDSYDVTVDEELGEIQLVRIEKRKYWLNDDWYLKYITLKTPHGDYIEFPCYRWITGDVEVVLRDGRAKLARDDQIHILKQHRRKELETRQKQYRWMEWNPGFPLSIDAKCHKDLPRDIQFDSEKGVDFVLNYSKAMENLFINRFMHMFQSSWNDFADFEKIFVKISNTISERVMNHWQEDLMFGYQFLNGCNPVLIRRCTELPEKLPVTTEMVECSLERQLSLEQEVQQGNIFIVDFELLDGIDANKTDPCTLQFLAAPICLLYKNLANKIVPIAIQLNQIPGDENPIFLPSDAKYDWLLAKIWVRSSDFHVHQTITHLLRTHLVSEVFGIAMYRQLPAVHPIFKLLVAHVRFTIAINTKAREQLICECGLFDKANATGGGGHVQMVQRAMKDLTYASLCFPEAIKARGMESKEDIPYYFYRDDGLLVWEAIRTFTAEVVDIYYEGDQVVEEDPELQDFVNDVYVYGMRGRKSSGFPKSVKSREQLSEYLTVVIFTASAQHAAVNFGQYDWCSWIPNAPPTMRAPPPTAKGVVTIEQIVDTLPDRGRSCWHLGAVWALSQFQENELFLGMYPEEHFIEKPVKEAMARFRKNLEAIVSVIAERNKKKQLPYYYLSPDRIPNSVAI

[2] = system: NIDDM male mice (C57BLKS/J-m+/+Lepr db); experiment: Therapeutic study: serum glucose levels in diabetic animals; type: in vivo; conditions: i.p. twice daily
Protocol: In vivo evaluation of the role of dual inhibitor of both 5-LO and 12/15-LO enzymes in the reduction of serum glucose levels and insulin was performed in C57BLKs/J-m+/+Lepr db mice, a non-insulin dependent diabetic mellitus (NIDDM) model, as described in Examples. […] […].
Non-insulin dependent diabetic mellitus (NIDDM) male mice (C57BLKS/J-m+/+Lepr db), weighing 45±5 g (10 weeks of age) and provided by Institute for Animal Reproduction (IAR, Japan), were used.
Groups of 10 non-insulin dependent diabetic mellitus (NIDDM) male mice (C57BLKS/J-m+/+Lepr db), weighing 45±5 g and 10-weeks-old, were used. The animals were housed in Individually Ventilated Cages Racks (IVC Racks) throughout the experiment; all animals were allowed free access to sterilized Lab chow and sterilized distilled water. The test compounds, as well as vehicle (0.5% DMSO/2% Tween 80/0.9% NaCl), were each administered intraperitoneally twice daily (1st at 9:00 A.M. and 2nd at 16:00 P.M.) for a total of 14 consecutive days. Using blood samples collected from the orbital sinus, pre-treatment serum glucose and insulin levels were determined 24 hours prior to the first dosing on day 0. Post-treatment glucose and insulin levels were detected 4 hours after dosing on days 11 and 14. Also, serum glucose and insulin levels were obtained before and 15, 30 and 90 minutes after glucose loading (orally glucose tolerance test (OGTT) 2 g/kg), 4 hours following the dosing on day 11. Serum glucose and Insulin (on days 0, 11 and 14) levels were determined by enzymatic (Mutaratase-GOD) and ELISA (mouse insulin assay kit) methods, respectively. The percentage of post-treatment relative to pre-treatment group values obtained on days 11 and 14 were analyzed using One Way ANOVA followed by Dunnett's test for comparison between vehicle and treated groups. […]
For effect on OGTT, AUC (area under the curve) for the serum glucose at times 0, 15, 30, and 90 minutes after OGTT was plotted for each test compound and its respective vehicle control. […] Body weight and food intake were measured daily through the course of the study.

[3] = target: T2, porcine leukocyte 12/15-lipoxygenase (Sus scrofa, UniProt P16469); experiment: 12/15-Lipoxygenase Enzyme Assay (colorimetric, ferric oxidation of xylenol orange); type: biochemical
T2 construct: purchased Cayman 60300
T2 sequence (P16469 1-663): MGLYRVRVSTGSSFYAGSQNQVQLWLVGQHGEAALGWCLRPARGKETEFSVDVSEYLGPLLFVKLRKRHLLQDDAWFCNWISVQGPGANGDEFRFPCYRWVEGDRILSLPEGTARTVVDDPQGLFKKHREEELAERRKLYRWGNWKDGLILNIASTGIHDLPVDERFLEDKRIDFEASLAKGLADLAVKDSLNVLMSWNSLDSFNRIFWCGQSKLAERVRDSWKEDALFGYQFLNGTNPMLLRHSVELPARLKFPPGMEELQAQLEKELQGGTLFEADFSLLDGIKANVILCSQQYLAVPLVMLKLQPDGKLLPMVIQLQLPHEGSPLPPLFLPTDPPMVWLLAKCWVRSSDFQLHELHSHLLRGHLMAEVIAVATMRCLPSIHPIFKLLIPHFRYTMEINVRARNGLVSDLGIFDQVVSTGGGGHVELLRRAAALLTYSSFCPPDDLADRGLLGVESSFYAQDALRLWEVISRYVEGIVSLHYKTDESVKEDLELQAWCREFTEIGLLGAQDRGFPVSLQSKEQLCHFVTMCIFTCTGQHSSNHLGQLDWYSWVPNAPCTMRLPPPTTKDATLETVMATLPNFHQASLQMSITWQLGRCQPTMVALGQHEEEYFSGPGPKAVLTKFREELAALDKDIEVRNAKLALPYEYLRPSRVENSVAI
Protocol: This procedure was used for measuring the enzymatic activity of porcine leukocyte 12/15-lipoxygenase using a colorimetric method based on the ferric oxidation of xylenol orange.
(§1) The test compound and/or vehicle were added to 1.3 μL 12/15-lipoxygenase in 50 mM Tris-HCl buffer, pH 7.4. The reaction was initiated by addition of 70 μM arachidonic acid in Tris-HCl buffer, pH 7.4, and terminated after a 10 minute incubation at room temperature by addition of FOX reagent (25 mM sulphuric acid, 100 μM xylenol orange, 100 μM iron (II) sulphate, methanol:water 9:1). The yellow color of acidified xylenol orange was converted to a blue color by the lipid hydroperoxide-mediated oxidation of Fe^2+ ions and the interaction of the resulting Fe^3+ ions with the dye. The complex was allowed to form during a 1 hour incubation at room temperature with shaking. Absorbance of the Fe^3+ complex was then measured at 620 nm using a spectrophotometer.
Negative controls contained enzyme during the incubation step but substrate was not added until after the FOX reagent.

5-lipoxygenase [4] = target: T1, 5-lipoxygenase; experiment: 5-Lipoxygenase Enzyme Assay (colorimetric, ferric oxidation of xylenol orange); type: biochemical; set-up: purchased Cayman 60402
Protocol: This procedure was used for measuring the enzymatic activity of human recombinant 5-lipoxygenase using a colorimetric method based on the ferric oxidation of xylenol orange.
as §1, with “was” for “were”, “0.5” for “1.3”, “5-lipoxygenase” for “12/15-lipoxygenase”, “spectrophotometer. Negative controls contained enzyme during the incubation step but substrate was not added until after the FOX reagent.” for “spectrophotometer.”

[5] = read-out: classification as dual inhibitor: 12/15-LO enzyme assay IC50
[6] = read-out: classification as dual inhibitor: 5-LO enzyme assay IC50

SMILES | 5-lipoxygenase inhibition / specificity as reported in the literature (5-lipoxygenase [1]) | IC50 [3, 5] | IC50 (5-lipoxygenase [4]; [6]) | also measured
CC(c1cc2ccccc2s1)N(O)C(N)=O (centres unmarked) [C, Zileuton, reference compound] | specific |  |  | reduction in serum glucose relative to the respective vehicle control group (FIG. 2) ([2]; 30 mg/kg, p<0.01): reduction in serum glucose
CC(Cc1ccc(O)c(O)c1)C(C)Cc1ccc(O)c(O)c1 (centres unmarked) [Compound A, Nordihydroguaiaretic acid (NDGA)] | inhibitor |  |  | 
Cc1c(O)c(C)c2c(c1F)OC(C)(C)CC2 [Compound D, 8-fluoro-2,2,5,7-tetramethylchroman-6-ol] |  | < 5 µM | < 5 µM | IC50 ([3]; read-out: in vitro IC50 value in a 12/15-LO enzyme assay): < 5 µM; IC50 (5-lipoxygenase [4]; read-out: in vitro IC50 value in a 5-LO enzyme assay): < 5 µM; reduction in baseline elevated blood glucose level in comparison to the vehicle group [2]: 13%
Cc1c(O)cc2c(c1C)N(c1ccc(O)cc1)C(C)CC2 (centres unmarked) [Compound E, 1-(4-hydroxyphenyl)-2,7,8-trimethyl-1,2,3,4-tetrahydroquinolin-6-ol] |  | < 5 µM | < 5 µM | lowering of serum glucose levels compared to respective control (FIG. 2) ([2]; 15 mg/kg, p<0.05): significant lowering
